Laboratory results from patent US5804576A, “Derivatives of 5-androsten-17-ones and 5-androstan-17-ones” (Research Corporation Technologies, Inc., priority 1986, dated 1998).
“And” between values parts separate entries of the source, which are not always exact repeats. Equal entries are not always repeated. “Also recorded” adds a separate entry of the source. Where two headings read alike, the source gives them in different places.

Assays:
[1] = system: DMBA produced papillomas and carcinomas; conditions: topical; cited from earlier work
[2] = system: TPA (Tumor Promoter) Stimulation of Mouse Epidermal DNA; assay: Inhibition of TPA stimulation of mouse epidermal DNA synthesis (3H-thymidine incorporation), oral; assay type: in vivo, mouse (ICR male)
In short: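 Shaved male ICR mice (7-9 weeks) got steroid orally in sesame oil (0.5 ml/mouse), then topical TPA (10 μg in acetone) 1 h later. After 20 h, i.p. 60 μCi ³H-thymidine 20 min before sacrifice; epidermal DNA labelling expressed as cpm per μg DNA (diphenylamine assay).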

[3] = system: rat uterus; assay: Estrogenic and anti-estrogenic activity (uterine weight, s.c., CD rats); assay type: in vivo, rat (female CD); conditions: for Mean Uterine Weight ± S.D.: 3 days, DHEA vs 16 experiment; for estrogenic / anti-estrogenic effect, uterine weight (in words): s.c., 60 mg/kg or higher, female CD rats
Description: Female CD rats, 26-27 days old, were used. Rats were injected subcutaneously for 3 days with either DHEA or 16 in propylene glycol. Control rats received propylene glycol alone. The rats were killed on the 4th day and the uteri were removed and weighed.
Female CD rats, 26-27 days old, were injected subcutaneously for 3 days with one of the compounds of the present invention at 60 mg/kg in propylene glycol. Controls received propylene glycol alone. On the 4th day the rats were killed and the uteri were dissected out and weighed.

[4] = Anti-obesity test (body weight, food consumption); assay type: in vivo, mouse (male A/J); conditions: for mean weekly weight / mean weekly weight ± S.D.: n = 5; for mean weekly weight ± S.D.: 0.36% of diet; for weekly weight (Table 13): 0.54% in food
In short: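 Male A/J mice, 5 weeks old on arrival, housed 5 per cage at 24 °C on a 12 h light/dark cycle, were given steroid in chow from one week after arrival; dietary concentrations were varied, or 0.54% or 0.36%. Body weight and food consumption (food added minus remaining) were recorded weekly.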

[5] = system: rat uterus; assay: Uterotrophic test for estrogenic activity, oral; assay type: in vivo; conditions: for Mean Uterine Weight: 3 days, n = 6; for estrogenic activity (in words): rat uterotrophic test
Text: Uterotrophic Test for Estrogenic Activity. Compound 16 vs. DHEA and Estradiol-benzoate. Compounds Given by Oral Administration.
Twenty-two day old rats were obtained from Charles River Laboratories. Animals were used at 29 days of age. Test steroids were suspended by homogenization in sesame oil. Rats were orally intubated at 1-2 P.M. for 3 days with a test steroid in sesame oil or with sesame oil alone (control). On the 4th day the animals were killed and the uteri were removed and weighed.

[6] = system: C57BL/KsJ-db/db mice; assay: Anti-hyperglycemic activity (blood glucose); assay type: in vivo, mouse (C57BL/KsJ-db/db); conditions: for blood glucose lowering compared with DHEA (in words): compound 16 0.2% vs DHEA 0.4% of diet
Description: C57BL/KsJ-db/db 8 week old female mice were obtained and housed in polycarbonate cages in animal quarters maintained at 24° C. with 12 h of light and 12 h of darkness each day.
Mice were placed on a control chow or a chow diet containing either 0.4% DHEA or 0.2% of compound 16.
For determination of blood glucose levels, mice were bled from the orbital sinus using a heparinized capillary tube. 0.2 ml of blood was added to 1.8 ml of water to hemolyze the blood and glucose concentration was determined using the glucose oxidase assay.

## C[C@H]1CC[C@@]2(C)C(=CC[C@@H]3[C@@H]2CC[C@]2(C)C(=O)CC[C@@H]32)C1 [Compound 16, 3β-methyl-5-androsten-17-one]
[1]
  inhibition of DMBA produced papillomas and carcinomas (in words): inhibits DMBA produced papillomas and carcinomas
[2]; oral dose-response, as active as DHEA
  activity relative to DHEA (TPA stimulation of epidermal DNA synthesis): about 3 X
[3]; 60 mg/kg s.c.
  Mean Uterine Weight ± S.D.: 126 ± 87 mg/100 gm body weight
[3]; 120 mg/kg s.c.
  Mean Uterine Weight ± S.D.: 111 ± 27 mg/100 gm body weight
[3]; 60 mg/kg
  estrogenic / anti-estrogenic effect, uterine weight (in words): reduction in uterine weight; also recorded: apparently acts as an anti-estrogen
[3]; listed as cmpd. 16, 60 mg/kg
  estrogenic / anti-estrogenic effect, uterine weight (in words): significantly greater than that of the cmpd. 21 treated rats; also recorded: highly significant anti-estrogenic activity
[4]
  Anti-obesity Activity relative to DHEA: more than 2 X
[4]; 0.18% of diet, week 0
  mean weekly weight: 22.6 ± 2.7 grams
[4]; 0.18% of diet, week 1
  mean weekly weight: 19.8 ± 2.3 grams
[4]; 0.18% of diet, week 2
  mean weekly weight: 19.4 ± 2.1 grams
[4]; 0.18% of diet, week 3
  mean weekly weight: 19.4 ± 2.1 grams
[4]; 0.18% of diet, week 4
  mean weekly weight: 19.6 ± 2.2 grams
[4]; 0.35% of diet, week 0
  mean weekly weight: 22.0 ± 2.5 grams
[4]; 0.35% of diet, week 1
  mean weekly weight: 16.8 ± 1.6 grams
[4]; 0.35% of diet, week 2
  mean weekly weight: 18.2 ± 0.8 grams
[4]; 0.35% of diet, week 3
  mean weekly weight: 17.2 ± 1.7 grams
[4]; 0.35% of diet, week 4
  mean weekly weight: 17.0 ± 1.2 grams
[4]; week 0
  mean weekly weight ± S.D.: 23.3 ± 2.5 grams
[4]; week 1
  mean weekly weight ± S.D.: 18 ± 1.5 grams
[4]; week 2
  mean weekly weight ± S.D.: 17.1 ± 1.6 grams
[5]; 200 mg/kg oral
  Mean Uterine Weight: 189 ± 14 Mgs
[5]; 400 mg/kg oral
  Mean Uterine Weight: 174 ± 20 Mgs
[5]
  estrogenic activity (in words): Neither compounds 16 nor 2 are estrogenic; also recorded: devoid of estrogenic activity in the rat uterotrophic test
[5]; listed as compound 16
  estrogenic activity (in words): without any apparent estrogenic effect
[6]; 0.2% of diet, week 0, listed as Cpd 16
  Blood Glucose Levels: 216 ± 61 mg/deciliter
[6]; 0.2% of diet, week 0, listed as Cpd. 16
  Blood Glucose Levels: 244 ± 32 mg/deciliter
[6]; 0.2% of diet, week 1, listed as Cpd 16
  Blood Glucose Levels: 135 ± 15 mg/deciliter
[6]; 0.2% of diet, week 1, listed as Cpd. 16
  Blood Glucose Levels: 143 ± 21 mg/deciliter
[6]; 0.2% of diet, week 2, listed as Cpd 16
  Blood Glucose Levels: 118 ± 12 mg/deciliter
[6]; 0.2% of diet, week 2, listed as Cpd. 16
  Blood Glucose Levels: 134 ± 13 mg/deciliter
[6]; 0.2% of diet, week 3
  Blood Glucose Levels: 102 ± 8 mg/deciliter
[6]; 0.2% of diet, week 4
  Blood Glucose Levels: 105 ± 5 mg/deciliter
[6]; after 0.2% of diet, 24 hrs. on control diet
  Blood Glucose Levels: 147 ± 10 mg/deciliter
[6]; after 0.2% of diet, 48 hrs. on control diet
  Blood Glucose Levels: 262 ± 23 mg/deciliter
[6]
  blood glucose lowering compared with DHEA (in words): more effective in lowering blood glucose concentration
[6]; listed as compound 16
  blood glucose lowering compared with DHEA (in words): significantly more slowly in the mice that had received compound 16

## C[C@]12CC[C@H](O)CC1=CC[C@@H]1[C@@H]2CC[C@]2(C)C(=O)CC[C@@H]12 [DHEA, 3β-Hydroxy-5-androst-en-17-one, reference compound]
[1]
  inhibition of DMBA produced papillomas and carcinomas (in words): inhibits DMBA produced papillomas and carcinomas
[2]; 200 mg/kg or 100 mg/kg oral
  blocking the TPA stimulation in DNA synthesis rate (in words): not at 200 mg/kg or 100 mg/kg
[2]; 400 mg/kg oral
  blocking the TPA stimulation in DNA synthesis rate (in words): active at blocking the TPA stimulation in DNA synthesis rate at 400 mg/kg
[2]; oral, single administration
  TPA stimulation in 3H-thymidine incorporation (in words): does not inhibit the TPA stimulation in epidermal ^3 H-thymidine incorporation to a degree comparable; also recorded: inactive
[3]; 60 mg/kg s.c.
  Mean Uterine Weight ± S.D.: 222 ± 77 mg/100 gm body weight
[4]; 0.18% of diet, week 0
  mean weekly weight: 22.4 ± 1.8 grams
[4]; 0.18% of diet, week 1
  mean weekly weight: 20.4 ± 1.9 grams
[4]; 0.18% of diet, week 2
  mean weekly weight: 21.1 ± 0.5 grams
[4]; 0.18% of diet, week 3
  mean weekly weight: 22.4 ± 0.8 grams
[4]; 0.18% of diet, week 4
  mean weekly weight: 23.6 ± 1.5 grams
[4]; 0.35% of diet, week 0
  mean weekly weight: 21.8 ± 2.2 grams and 22.4 ± 2.3 grams
[4]; 0.35% of diet, week 1
  mean weekly weight: 20.0 ± 2.3 grams and 16.0 ± 1.6 grams
[4]; 0.35% of diet, week 2
  mean weekly weight: 19.2 ± 1.8 grams and 20.2 ± 0.9 grams
[4]; 0.35% of diet, week 3
  mean weekly weight: 19.6 ± 2.8 grams and 21.0 ± 0.8 grams
[4]; 0.35% of diet, week 4
  mean weekly weight: 22.2 ± 2.4 grams and 22.2 ± 0.9 grams
[4]; 0.35% of diet, week 5
  mean weekly weight: 21.8 ± 2.2 grams
[4]; 0.35% of diet, week 7
  mean weekly weight: 23.2 ± 2.4 grams
[4]; week 0
  mean weekly weight ± S.D.: 23.2 ± 1.3 grams
  weekly weight (Table 13): 21.2 ± 1.4
[4]; week 1
  mean weekly weight ± S.D.: 21.8 ± 1.0 grams
  weekly weight (Table 13): 16.8 ± 1.6
[4]; week 2
  mean weekly weight ± S.D.: 20.8 ± 1.0 grams
  weekly weight (Table 13): 16.7 ± 2.0
[4]; 400 mg/kg repeated (DHEA), cancer preventive dosages (19, 20)
  anti-weight effect (in words): produces an anti-weight effect
[4]; week 3
  weekly weight (Table 13): 18.8 ± 1.1
[4]; week 4
  weekly weight (Table 13): 19.0 ± 2.0
[4]; week 5
  weekly weight (Table 13): 19.6 ± 2.8
[4]; 0.7% of diet, week 0
  mean weekly weight: 21.1 ± 2.8 grams and 22.0 ± 2.5 grams
[4]; 0.7% of diet, week 1
  mean weekly weight: 15.2 ± 1.8 grams and 17.0 ± 1.9 grams
[4]; 0.7% of diet, week 2
  mean weekly weight: 17.0 ± 2.0 grams and 17.8 ± 1.8 grams
[4]; 0.7% of diet, week 3
  mean weekly weight: 17.8 ± 1.1 grams and 18.4 ± 1.8 grams
[4]; 0.7% of diet, week 4
  mean weekly weight: 18.8 ± 1.1 grams and 19.2 ± 1.6 grams
[4]; 0.7% of diet, week 5
  mean weekly weight: 18.2 ± 1.3 grams and 20.2 ± 1.9 grams
[4]; 0.7% of diet, week 6
  mean weekly weight: 19.8 ± 2.0 grams
[4]; Table 14, DHEA = 1×
  Anti-obesity Activity relative to DHEA: 1 ×
[5]; 400 mg/kg oral
  Mean Uterine Weight: 261 ± 23 Mgs
[5]
  estrogenic activity (in words): significantly estrogenic
[6]; 0.4% of diet, week 0
  Blood Glucose Levels: 214 ± 59 mg/deciliter and 232 ± 28 mg/deciliter
[6]; 0.4% of diet, week 1
  Blood Glucose Levels: 161 ± 19 mg/deciliter and 132 ± 14 mg/deciliter
[6]; 0.4% of diet, week 2
  Blood Glucose Levels: 145 ± 19 mg/deciliter and 135 ± 37 mg/deciliter
[6]; 0.4% of diet, week 3
  Blood Glucose Levels: 117 ± 12 mg/deciliter
[6]; 0.4% of diet, week 4
  Blood Glucose Levels: 112 ± 4 mg/deciliter
[6]; Table 15, DHEA = 1×
  Anti-diabetic Activity relative to DHEA: 1 ×
[6]; after 0.4% of diet, 24 hrs. on control diet
  Blood Glucose Levels: 192 ± 32 mg/deciliter
[6]; after 0.4% of diet, 48 hrs. on control diet
  Blood Glucose Levels: 310 ± 37 mg/deciliter
